Tests used:
[1] = test system: CD11b; experiment: Human whole blood CD11b up-regulation assay; type: cell-based; details: Homo sapiens, 2 nM human C5a, CD15+ granulocytes, read-out: hCD11b IC50
In short: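 Heparinized human whole blood (used within 2 h) preincubated 10 min at room temperature with compound in 1% DMSO, then stimulated with 2 nM human C5a for 15 min. After anti-CD15/anti-CD11b staining on ice and RBC lysis, CD11b median fluorescence on 10,000 CD15+ granulocytes measured by flow cytometry.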

[2] = biological target: human C5aR (Homo sapiens (Human), UniProt P21730); experiment: FLIPR assay: inhibition of C5a-mediated calcium mobilization; type: cell-based; details: stable cell line over expressing human C5aR & Gα15, human C5a at EC50 (0.1-0.25 nM)
In short: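 Stable cell line overexpressing human C5aR with Gα15, measured on FLIPR Tetra. Cells loaded 1 h at 37° C with calcium 5 dye and 2.5 mM probenecid in HBSS/20 mM HEPES/0.1% BSA. Compounds preincubated 30 minutes at room temperature in 1% DMSO before C5a.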

Chain of human C5aR (P21730 whole entry): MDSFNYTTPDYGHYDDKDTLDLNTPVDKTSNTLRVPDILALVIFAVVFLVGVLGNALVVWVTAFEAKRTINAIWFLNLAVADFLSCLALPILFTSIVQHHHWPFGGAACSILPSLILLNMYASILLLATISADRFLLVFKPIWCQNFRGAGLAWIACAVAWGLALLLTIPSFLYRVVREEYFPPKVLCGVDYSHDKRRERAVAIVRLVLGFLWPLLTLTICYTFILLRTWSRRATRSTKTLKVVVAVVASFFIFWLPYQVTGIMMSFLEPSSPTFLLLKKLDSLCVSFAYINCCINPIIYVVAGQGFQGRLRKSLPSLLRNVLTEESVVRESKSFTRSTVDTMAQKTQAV

Row | Compound | IC50 [1] [nM] | IC50 [2] [nM]
1 | COc1nc(-c2c(C)ccc3[nH]nc(Cl)c23)nc2c1CN(c1cc(C(C)C)ccc1C)CC2 [Example 32-A, 2-(3-Chloro-5-methyl-1H-indazol-4-yl)-6-(5-isopropyl-2-methylphenyl)-4-methoxy-5,6,7,8 tetrahydropyrido[4,3-d]pyrimidine] | 63 | 6
2 | CO[C@H]1CCN(c2nc(-c3c(C)cccc3C)nc3c2CN(c2cc(C(C)C)ccc2C)CC3)CC1(C)C [Example 19-AD, (S)-2-(2,6-dimethylphenyl)-6-(5-isopropyl-2-methylphenyl)-4-(4-methoxy-3,3-dimethylpiperidin-1-yl)-5,6,7,8-tetrahydropyrido[4,3-d]pyrimidine] | 26 | 2
3 | CO[C@@H]1CCN(c2nc(-c3c(C)cccc3C)nc3c2CN(c2cc(C(C)C)nn2C)CC3)[C@H](C)C1 [Example 23-C, 2-(2,6-dimethylphenyl)-6-(3-isopropyl-1-methyl-1H-pyrazol-5-yl)-4-((2R,4R)-4-methoxy-2-methylpiperidin-1-yl)-5,6,7,8-tetrahydropyrido[4,3-d]pyrimidine] | 95 | 40
4 | Cc1ccc(C(C)C)cc1N1CCc2nc(-c3c(C)ccc4[nH]ncc34)nc(N3CCN(CC(N)=O)C[C@H]3C)c2C1 [Example 24-L, (R)-2-(4-(6-(5-isopropyl-2-methylphenyl)-2-(5-methyl-1H-indazol-4-yl)-5,6,7,8-tetrahydropyrido[4,3-d]pyrimidin-4-yl)-3-methylpiperazin-1-yl)acetamide] | 391 | 6
5 | CO[C@H]1CCN(c2nc(-c3c(C(C)C)ccc4[nH]ncc34)nc3c2CN(c2cc(C(C)C)nn2C)CC3)CC1(C)C [Example 23-F, (S)-6-(3-isopropyl-1-methyl-1H-pyrazol-5-yl)-2-(5-isopropyl-1H-indazol-4-yl)-4-(4-methoxy-3,3-dimethylpiperidin-1-yl)-5,6,7,8-tetrahydropyrido[4,3-d]pyrimidine] | 28 | 5

The next lines start with the values.

Row | IC50 [1] [nM] | IC50 [2] [nM] | Compound
6 | 19 | 9 | CCn1nc(C2CC2)c(Cl)c1N1CCc2nc(-c3c(C)ccc4[nH]nc(C)c34)nc(N3CCOC[C@H]3C)c2C1 [Example 70-G, (R)-4-(6-(4-Chloro-3-cyclopropyl-1-ethyl-1H-pyrazol-5-yl)-2-(3,5-dimethyl-1H-indazol-4-yl)-5,6,7,8-tetrahydropyrido[4,3-d]pyrimidin-4-yl)-3-methylmorpholine]
7 | 26 | 2 | Cc1ccc(C(C)C)cc1N1CCc2nc(-c3c(C)ccc4[nH]nc(C)c34)nc(N3CCOC[C@H]3C)c2C1 [Example 65-K, (R)-4-(2-(3,5-dimethyl-1H-indazol-4-yl)-6-(5-isopropyl-2-methylphenyl)-5,6,7,8-tetrahydropyrido[4,3-d]pyrimidin-4-yl)-3-methylmorpholine]
8 | 24 | 2 | CO[C@H]1CCN(c2nc(-c3c(C)ccc4[nH]nc(Cl)c34)nc3c2CN(c2cc(C(C)C)ccc2C)CC3)CC1(C)C [Example 32-B, (S)-2-(3-Chloro-5-methyl-1H-indazol-4-yl)-6-(5-isopropyl-2-methylphenyl)-4-(4-methoxy-3,3-dimethylpiperidin-1-yl)-5,6,7,8-tetrahydropyrido[4,3-d]pyrimidine]
9 | 69 | 16 | Cc1ccc2[nH]nc(C)c2c1-c1nc2c(c(N3CC[C@@H](N(C)C)C3)n1)CN(c1c(Cl)c(C3CC3)nn1C)CC2 [Example 68-C, (R)-1-(6-(4-chloro-3-cyclopropyl-1-methyl-1H-pyrazol-5-yll)-2-(3,5-dimethyl-1H-indazol-4-yl)-5,6,7,8-tetrahydropyrido[4,3-d]pyrimidin-4-yl)-N,N-dimethylpyrrolidin-3-amine]
10 | 22 | 0.5 | CO[C@@H]1CCN(c2nc(-c3c(C)ccc4[nH]nc(C)c34)nc3c2CN(c2cc(C4CC4)nn2C)CC3)CC1(C)C [Example 23-I, (R)-6-(3-cyclopropyl-1-methyl-1H-pyrazol-5-yl)-2-(3,5-dimethyl-1H-indazol-4-yl)-4-(4-methoxy-3,3-dimethylpiperidin-1-yl)-5,6,7,8-tetrahydropyrido[4,3-d]pyrimidine]

Source: patent publication US8846656B2, “Tetrahydropyrido-pyridine and tetrahydropyrido-pyrimidine compounds and use thereof as C5a receptor modulators” (Novartis AG, priority 2011, dated 2014)
